Measured values published in PubChem BioAssay AID179 (DTP/NCI, 2004).
Calls of active or inactive are those of the source.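 The calls were made as follows: active = compounds giving half or more protection of infected cells from virus-caused growth loss, again on retest; inactive = the rest.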

Test system: CEM cells HIV-1 protection, formazan growth assay
Assay: NCI AIDS Antiviral Assay
Details: for IC50: measured here: growth of uninfected CEM cells
How it was run: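 Steps: treat uninfected and HIV-1-infected human CEM cells at five drug levels; quantify growth by soluble formazan; retest any compound reaching 50% protection; classify actives from the retest.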

| SMILES | EC50 [µM] | IC50 [µM] | outcome |
| --- | --- | --- | --- |
| O=C(CCCC[n+]1ccccc1)Sc1ccccc1C(=O)Nc1ccc(S(=O)(=O)Nc2ccnn2-c2ccccc2)cc1 | 6.17 | 35.5 |  |
| O=[N+]([O-])c1cccc2nsnc12 | > 145 | 23.4 |  |
| CCCCCC1CC=CC(NC(=O)OCc2ccccc2)C1/C=C/CCCC1OCCO1 (stereo not given) |  |  | inactive |
| C=CCP(c1ccccc1)c1ccccc1 | 0.0631 | > 200 |  |
| O=C(C[N+]12CCC(O)C1C(CO)CC2)c1ccc(Br)cc1 (stereo not given) | > 575 | > 575 |  |
| O=C(O)CNS(=O)(=O)c1ccc(NCc2ccccc2)cc1 |  |  | inactive |
| COc1cc(OCc2ccc3nc(OC)c(OC)nc3c2)cc(OC)c1OC | > 200 | > 200 |  |
| C=CCC(C(=O)OC)C1(C(=O)OC)NCCc2c1[nH]c1ccccc21 (stereo not given) | > 324 | 178 |  |
| COc1ccc2nc3ccc(OC)cc3c(S(=O)Cc3ccc([N+](=O)[O-])cc3)c2c1 (stereo not given) | > 200 | 3.24 |  |
| O=C(O)COc1ccc(C(=O)/C(SS/C(C(=O)c2ccc(OCC(=O)O)c(Cl)c2Cl)=C2\C=C(c3ccccc3Cl)SS2)=C2/C=C(c3ccccc3Cl)SS2)c(Cl)c1Cl | > 35.5 | > 35.5 |  |
| CCOC1SC(SC)=NN1C(=O)C(OC(C)=O)C(OC(C)=O)C(OC(C)=O)C(OC(C)=O)C(=O)N1N=C(SC)SC1OCC (stereo not given) |  |  | inactive |
| CSC1=N/C(=C\c2ccc(C)cc2)C(=O)N1CN1CCCCC1 | > 200 | > 200 |  |
| Cc1cc(C)nc(NS(=O)(=O)c2ccc(NCN3C(=O)c4ccccc4C3=O)cc2)n1 | > 200 | 110 |  |
| C[N+](C)(C)CCNP(=O)(Oc1ccccc1)c1ccccc1 (stereo not given) | > 562 | > 562 |  |
| COc1cc([N+](=O)[O-])c(S(=O)(=O)O)cc1-n1nc(-c2ccccc2)n[n+]1-c1cc(S(=O)(=O)[O-])c([N+](=O)[O-])cc1OC | > 100 | > 100 |  |
| Cn1cnc([N+](=O)[O-])c1Sc1nc2cccnc2s1 | > 170 | 4.57 |  |
| COC(=O)c1ccccc1/C=C1\Cc2ccc3c(c2C1=O)CCC3 | > 200 | > 200 |  |
| C/C(=N\NC(=S)N1CCCCC1)c1cccc(C)n1 | > 0.2 | 0.00617 |  |
| C[CH2][Pb]([CH2]C)([CH2]C)[O]C(=O)COc1ccc(Cl)cc1Cl | > 2 | 0.575 |  |
| Cc1cc(N(CCC#N)CCC#N)ccc1N=Nc1cccc(Cl)c1 | > 7.76 | > 7.76 |  |
| COc1cc2cc(C(=O)N3CC(CCl)c4ccc(NO)cc43)[nH]c2c(OC)c1OC (stereo not given) | > 2 | 1.82 |  |

| SMILES | EC50 [µM] | IC50 [µM] | outcome |
| --- | --- | --- | --- |
| CC(=O)Oc1cc(/C=C(\C#N)C(=O)NCCCCCNC(=O)/C(C#N)=C/c2cc(OC(C)=O)c(OC(C)=O)c(OC(C)=O)c2)cc(OC(C)=O)c1OC(C)=O | > 200 | 27.5 |  |
| C=C(CCC(Cl)C(COS(=O)(=O)c1ccc(C)cc1)OC(CCCO[Si](c1ccccc1)(c1ccccc1)C(C)(C)C)OCC)[Si](C)(C)C (stereo not given) | > 5.01 | > 5.01 |  |
| CC(=S)N/C=C\c1nc2ccccc2[nH]c1=O |  |  | inactive |
| CCOC(=O)Cc1nc2ccc3c(c2[nH]c1=O)C(=O)c1ccccc1C3=O | > 14.5 | > 14.5 |  |
| COc1ccc(/C=C2/C[N+](C)(C)C/C(=C/c3ccc(OC)cc3)C2=O)cc1 | > 513 | 36.3 |  |
| Cc1ccccc1-n1c(C)nc(-c2ccccc2)cc1=O | > 26.3 | > 26.3 |  |
| Cc1ccc(C)c2c1n1c(=O)n(C)c(=O)n21 | > 200 | > 200 |  |
| O=c1oc2ccc(Br)cc2cc1-n1nnc2cc([N+](=O)[O-])ccc21 | > 17.4 | > 17.4 |  |
| CCCCCCCCCCCCCCCCNc1ccn(C2OC(COP(=O)(O)OC3CC(n4cc(C)c(=O)[nH]c4=O)OC3CO)C(O)C2O)c(=O)n1 (stereo not given) | > 200 | 19.1 |  |
| Cc1cccc(C)c1NC(=O)CCCC(=O)C1CC(=O)CCC1=O (stereo not given) | > 550 | > 550 |  |
| O=C(O)c1nc2ccc(Cl)cc2[nH]c1=O |  |  | inactive |
| O=C1c2ccccc2C(=O)c2c(Nc3cccc4c3C(=O)c3ccccc3C4=O)cccc21 | > 200 | > 200 |  |
| COc1cc(C(c2ccc3c(c2)OCO3)C2SCCCS2)cc(OC)c1OC (stereo not given) | > 200 | 0.871 |  |
| Cc1ncc([N+](=O)[O-])n1CCNC(=O)CCCn1ccnc1[N+](=O)[O-] |  |  | inactive |
| C=CCn1c(=O)c(C(=O)Nc2nc(C34CC5CC(CC(C5)C3)C4)cs2)c(O)c2ccccc21 | > 200 | 77.6 |  |
| O=C(CC(O)c1cccnc1)CC(O)c1cccnc1 (stereo not given) | > 200 | 2.82 |  |
| CC1(C)CC(=O)c2c(nc3c(ccc4ccccc43)c2-c2ccc(NC(=O)CCCCC(=O)Nc3ccc(-c4c5c(nc6c4ccc4ccccc46)CC(C)(C)CC5=O)cc3)cc2)C1 | > 100 | 20 |  |
| CON(C)C(=O)C(Cc1ccccc1)NC(=O)OC(C)(C)C (stereo not given) | > 813 | 155 |  |
| CN1N=C(c2ccncc2)OC1c1ccccc1F (stereo not given) | > 200 | 129 |  |
| C=C(C)CC(OC(=O)C(C)(C)C)c1ccccc1 (stereo not given) |  |  | inactive |
| COc1cc(O)c2c(=O)c(OC)c(-c3ccc4c(c3)OCO4)oc2c1 | > 200 | > 200 |  |

| SMILES | EC50 [µM] | IC50 [µM] | outcome |
| --- | --- | --- | --- |
| C=C1[C@H](OC(=O)C(C)C)[C@]23CC4(O)[C@@H]5[C@@]6(C)CCC[C@]57C([C@@H]2C[C@@]1(O)[C@H](O)[C@@H]73)N4C6 | 61.7 | > 200 |  |
| COC(=O)/C=C(/Sc1nc(Cl)c(Cl)nc1N)C(=O)OC (tested in a mixture with another compound) | > 200 | 2.45 |  |
| NC1=C(c2nc(-c3ccccc3)cs2)C(c2ccc(Br)cc2)c2c(c3ccccc3oc2=O)O1 (stereo not given) | > 200 | > 200 |  |
| CC1=NN(c2nc(N)nc(-c3sccc3N)n2)C(C)(C)C1 | > 200 | 77.6 |  |
| CC1=CC2c3c(O)cc(-c4cc5ccc(O)cc5o4)cc3OC3(c4ccc(O)c5c4OC(C)(C)C=C5)Oc4cc(O)ccc4[C@H](C1)C23 (stereo not given in full) | > 20.9 | 3.72 |  |
| COC(=O)C(CC1CC(OC(C)=O)c2[nH]c3ccccc3c2CCN(C(C)=O)C1)C(=O)OC (stereo not given) | > 135 | > 135 |  |
| O=C(/C(=C(/Br)I)c1ccccc1)c1ccccc1 | > 200 | 27.5 |  |
| COc1ccc2c(c1)CC1NC2Cc2ccccc21 (stereo not given) |  |  | inactive |
| COC(=O)/C=C(/C=C1/C(C#N)=C(N)N(c2ccc(Cl)cc2)C1(C)/C(=C\C(=O)OC)C(=O)OC)C(=O)OC (stereo not given) | > 200 | 8.91 |  |
| CC(O)C1(CNc2cc(Cl)nc(N)n2)CCCC1 (stereo not given) | > 200 | 74.1 |  |
| COC(=O)[C@@]1(C)C(=O)CC[C@@H]1C=O | > 251 | 50.1 |  |
| CC(Cc1ccccc1)NC1=NCCO1 (stereo not given) | > 200 | 145 |  |
| Nc1ccccc1Sc1ccc(Cl)cc1 |  |  | inactive |
| CC(C)COC(=O)c1ccc(N)cc1 | > 200 | > 200 |  |
| COc1cc(/C=C2/CCCc3ccccc3C2=O)cc(OC)c1OC | > 200 | 11.7 |  |
| FC(F)(F)c1cccc(COCCN2CCN(Cc3cccc(C(F)(F)F)c3)CC2)c1 | > 200 | 18.2 |  |
| Cc1nc2c(=S)[nH]ncc2[nH]1 | > 200 | > 200 |  |
| CC(C)=C=CP(=O)(O)c1ccccc1 | > 200 | > 200 |  |
| NC(N)=N/N=C\CC(O)CO (stereo not given) | > 200 | > 200 |  |
| CCOC(=O)Nc1nn(C)c(=NCc2ccccc2)s1 | > 200 | > 200 |  |
| Cc1ccc(S(=O)(=O)n2ccc(-c3ccc4ccn(S(=O)(=O)c5ccc(C)cc5)c4c3)c2)cc1 | > 200 | 87.1 |  |

| SMILES | EC50 [µM] | IC50 [µM] | outcome |
| --- | --- | --- | --- |
| O=C(/N=N/C(=O)N1CCOCC1)N1CCOCC1 | 75.9 | 87.1 |  |
| O=C(O)C1=CC(=C(c2ccc(O)c(C(=O)O)c2)c2ccc(O)c(C(=O)O)c2)C=C(Cc2ccc(O)c(C(=O)O)c2)C1=O | > 1200 | 195 |  |
| CCOC(=O)C(NC(=O)c1ccccc1)(Nc1ccc(S(=O)(=O)Nc2nc(C)cc(C)n2)cc1)C(F)(F)F (stereo not given) | > 200 | > 200 |  |
| CSc1ncnc2c1ncn2CCC(=O)OC(C)(C)C | > 200 | > 200 |  |
| CC1=C(C#N)S(=O)(=O)c2c(oc(C)c2C)N1 | > 200 | > 200 |  |
| COCn1c(C)c(C)c2c(=O)oc(=O)[nH]c21 | > 200 | > 200 |  |
| C=C1c2nc3ccccc3n2C=C(c2ccc(Cl)cc2)N1c1ccccc1 | > 200 | 95.5 |  |
| CCCCCNC(=O)CCCCCCCCCCCNC(=O)CCCCCCCCCCN1C=CC(=CC=C2C=CC(=O)C=C2)C=C1 |  |  | inactive |
| COc1cc2[nH]c3c(c2cc1OC)CCN[C@@]31CC[C@@]2(CC3c4c(cc(OC)c(O)c42)CCN3C)C[C@@H]1OC (stereo not given in full) |  |  | inactive |
| CCCCCCCCCCCC1=C(NCCS)C(=O)C=C(NCCS)C1=O | > 1.26 | > 1.26 |  |
| O=C(CCCN1CCC2(CC1)C(=O)NCN2c1ccc(F)cc1)c1ccc(F)cc1 | > 200 | > 200 |  |
| C[C@]12CC[C@H](OC(=O)/C=C\c3cccc(N(CCCl)CCCl)c3)CC1CC[C@@H]1C2CC[C@]2(C)NC(=O)CCC12 (stereo not given in full) |  |  | inactive |
| CN(C)S(=O)(=O)c1cc(Cl)cc(Cc2cc(Cl)cc(S(=O)(=O)N(C)C)c2O)c1O | > 74.1 | 4.37 |  |
| Cn1cnc2c(sc3nc4ccccc4n32)c1=N | > 200 | > 200 |  |
| CCOC(=O)/N=N\C(=O)OCC | > 200 | > 200 |  |
| CCOc1ccccc1NC(=O)CCc1nc(=S)[nH][nH]1 | > 851 | 316 |  |
| c1ccc([P+](CCCCCCCC[P+](c2ccccc2)(c2ccccc2)c2ccccc2)(c2ccccc2)c2ccccc2)cc1 | > 100 | 1.23 |  |
| CC(=O)O[C@]1(C(C)=O)CC[C@H]2[C@@H]3C[C@H](C)C4=CCCC[C@]4(C)[C@H]3CC[C@@]21C | > 100 | > 100 |  |
| CCCN1CCC=C([Si](C)(C)C)C1 |  |  | inactive |
| O=C(O)Cc1cc(=O)[nH]n(-c2ccccc2)c1=O | > 200 | > 200 |  |
| CNP(=O)(Oc1cc(Cl)c(Cl)cc1Cl)N1CCN(c2ccccc2)CC1 (stereo not given) | > 58.9 | 30.9 |  |
